Reference: the NIST ThermoML archive (doi:10.1021/je800653d)
Numbers after ± are expanded uncertainties.

What was measured:
[1] = 101 kPa, Liquid; for speed of sound: Linear variable-path acoustic interferometer; for viscosity: Capillary tube (Ostwald / Ubbelohde) method
[2] = xn = mol fraction of the nth substance listed; details: 101 kPa, Liquid, x2 = 0; for speed of sound: Linear variable-path acoustic interferometer; for viscosity: Capillary tube (Ostwald / Ubbelohde) method

Row | SMILES | mass density ([1]; 298.15 K) [kg/m3] | speed of sound ([1]; 298.15 K) [m/s] | mass density ([1]; 303.15 K) [kg/m3] | viscosity ([1]; 303.15 K) [mPa·s] | speed of sound ([1]; 303.15 K) [m/s] | mass density ([1]; 308.15 K) [kg/m3] | viscosity ([1]; 308.15 K) [mPa·s] | speed of sound ([1]; 308.15 K) [m/s] | mass density ([1]; 313.15 K) [kg/m3] | viscosity ([1]; 313.15 K) [mPa·s] | speed of sound ([1]; 313.15 K) [m/s] | speed of sound ([2]; 298.15 K) [m/s] | mass density ([2]; 298.15 K) [kg/m3] | viscosity ([2]; 303.15 K) [mPa·s] | speed of sound ([2]; 303.15 K) [m/s] | mass density ([2]; 303.15 K) [kg/m3] | viscosity ([2]; 308.15 K) [mPa·s] | speed of sound ([2]; 308.15 K) [m/s] | mass density ([2]; 308.15 K) [kg/m3] | viscosity ([2]; 313.15 K) [mPa·s] | further results
1 | CCOC(C)=O [ethyl acetate] | 895.1 ± 0.8 | 1142 ± 5 | 889.4 ± 0.8 | 0.3806 ± 0.0041 | 1122 ± 5 | 883.9 ± 0.8 | 0.3622 ± 0.004 | 1101 ± 5 | 875.8 ± 0.8 | 0.3426 ± 0.0038 | 1082 ± 5 | – | – | – | – | – | – | – | – | – | –
2 | CCOC(C)=O [ethyl acetate] + O=S1(=O)CCCC1 | – | – | – | – | – | – | – | – | – | – | – | 1142 ± 5 | 895.1 ± 0.8 | 0.3806 ± 0.0041 | 1122 ± 5 | 889.4 ± 0.8 | 0.3622 ± 0.004 | 1101 ± 5 | 883.9 ± 0.8 | 0.3426 ± 0.0038 | speed of sound ([2]; 313.15 K): 1082 ± 5 m/s; mass density ([2]; 313.15 K): 875.8 ± 0.8 kg/m3
3 | CCCOC(C)=O [propyl ethanoate] + O=S1(=O)CCCC1 | – | – | – | – | – | – | – | – | – | – | – | 1156 ± 5 | 883.7 ± 0.7 | 0.4878 ± 0.0054 | 1149 ± 5 | 877.7 ± 0.8 | 0.4595 ± 0.0048 | 1139 ± 5 | 873.1 ± 0.8 | 0.4329 ± 0.0046 | speed of sound ([2]; 313.15 K): 1126 ± 5 m/s; mass density ([2]; 313.15 K): 866.7 ± 0.8 kg/m3
4 | O=S1(=O)CCCC1 [sulfolane] | 1263.9 ± 1.3 | 1601 ± 7 | 1261.8 ± 1.3 | 10.03 ± 0.079 | 1588 ± 7 | 1257 ± 1.3 | 8.795 ± 0.07 | 1576 ± 7 | 1251.6 ± 1.3 | 7.837 ± 0.063 | 1558 ± 7 | – | – | – | – | – | – | – | – | – | –
5 | CCCCOC(C)=O [butyl ethanoate] | 875.6 ± 0.7 | 1203 ± 5 | 871.6 ± 0.8 | 0.6072 ± 0.0061 | 1176 ± 5 | 867.1 ± 0.8 | 0.5687 ± 0.0057 | 1155 ± 5 | 862 ± 0.8 | 0.534 ± 0.0054 | 1135 ± 5 | – | – | – | – | – | – | – | – | – | –
6 | CCCCOC(C)=O [butyl ethanoate] + O=S1(=O)CCCC1 | – | – | – | – | – | – | – | – | – | – | – | 1203 ± 5 | 875.6 ± 0.7 | 0.6072 ± 0.0061 | 1176 ± 5 | 871.6 ± 0.8 | 0.5687 ± 0.0057 | 1155 ± 5 | 867.1 ± 0.8 | 0.534 ± 0.0054 | speed of sound ([2]; 313.15 K): 1135 ± 5 m/s; mass density ([2]; 313.15 K): 862 ± 0.8 kg/m3
7 | CCCOC(C)=O [propyl ethanoate] | 883.7 ± 0.7 | 1156 ± 5 | 877.7 ± 0.8 | 0.4878 ± 0.0054 | 1149 ± 5 | 873.1 ± 0.8 | 0.4595 ± 0.0048 | 1139 ± 5 | 866.7 ± 0.8 | 0.4329 ± 0.0046 | 1126 ± 5 | – | – | – | – | – | – | – | – | – | –
